The values that follow come from paper PMC8000724, “Trans-Epithelial Transport, Metabolism, and Biological Activity Assessment of the Multi-Target Lupin Peptide [sequence] (P5) and Its Metabolite [sequence] (P5-Met)” (Nutrients, 2021).

Where two headings read alike, the source gives them in different places.

Data set [1] concerns differentiated Caco-2 cells. The note with it: cited from earlier work. The procedure:
From a physiological point of view, the dynamic equilibrium between the transport and degradation of bioactive peptides is crucially important. […] Indeed, the transport is more efficient and its degradation less extensive when P5 is incubated in the presence of peptides P3 and P7. It is important to note, however, that P5 and P7 have completely different behaviors, since the transport rate of P5 tested alone is 1.8 ...

For data set [2], the system named is LDLR on HepG2 cell surface. The experiment in a line: In-cell Western (ICW) assay, LDLR localized on HepG2 cell surface. The class given is cell-based, human. The settings on record: PCSK9 alone 4 µg/mL, 2 h, mean ± SD. As for the experimental part: For the experiments, a total of 3 × 10^4 HepG2 cells/well were seeded in 96-well plates. The following day, cells were washed with PBS and then starved overnight (O/N) in DMEM without FBS and antibiotics. After starvation, HepG2 cells were treated with 4.0 μg/mL PCSK9-WT and 4.0 μg/mL PCSK9 + peptides P5 and/or P5-met (50 µM) and vehicle (H2O) for 2 h at 37 °C under 5% CO2 atmosphere. Subsequently, they were fixed in 4% paraformaldehyde for 20 min at room temperature (RT). Cells were washed 5 times with 100 µL of PBS/well (each wash was for 5 min at RT) and the endogenous peroxides activity quenched adding 3% H2O2 for 20 min at RT. Non-specific sites were blocked with 100 µL/well of 5% bovine serum albumin (BSA, Sigma) in PBS for 1.5 h at RT. LDLR primary antibody solution (1:3000 in 5% BSA in PBS, 25 µL/well) was incubated O/N at +4 °C. Subsequently, the primary antibody solution was discarded and each sample was washed 5 times with 100 µL/well of PBS (each wash was for 5 min at RT). Goat anti-rabbit Ig-HRP secondary antibody solution (Santa Cruz) (1:6000 in 5% BSA in PBS, 50 µL/well), was added and incubated 1 h at RT. The secondary antibody solution was washed 5 times with 100 µL/well of PBS (each wash for 5 min at RT). Freshly prepared TMB substrate (Pierce, 100 µL/well) was added and the plate was incubated at RT until desired color was developed. The reaction was stopped with 2 M H2SO4 and then the absorbance at 450 nm was measured using the microplate reader Synergy H1 (Winooski, VT, USA). After the read, cells were stained by adding 1× Janus Green stain, incubating for 5 min at RT. The dye was removed and the sample washed 5 times with water. Afterward 100 µL 0.5 M HCl for well were added and incubated for 10 min. After 10 seconds shaking, the OD at 595 nm was measured using the microplate reader Synergy H1 (Winooski, VT, USA).

The subject of the next data set is HepG2 cells. Nature of the data set: Fluorescent LDL uptake by HepG2 cells. The note with it: PCSK9 alone 4 µg/mL, 2 h; mean ± SD. The class given is cell-based, human. The procedure:
HepG2 cells (3 × 10^4/well) were seeded in 96-well plates and kept in complete growth medium for 2 days before treatment. The third day, cells were washed with PBS and then starved overnight (O/N) in DMEM without FBS and antibiotics. After starvation, they were treated with 4.0 μg/mL PCSK9 and 4.0 μg/mL PCSK9 + P5 and P5-met peptides (50.0 µM), and vehicle (H2O) for 2 h with at 37 °C under 5% CO2 atmosphere. At the end of the treatment, the culture medium was replaced with 50 μL/well LDL-DyLight™ 550 working solution (Cayman Chemical Company, Ann Arbor, MI, USA) prepared in DMEM without FBS and antibiotics. The cells were additionally incubated for 2 h at 37 °C and then the culture medium was aspirated and replaced with PBS (100 μL/well). The degree of LDL uptake was measured using the Synergy H1 fluorescent plate reader (Winooski, VT, USA) (excitation and emission wavelengths 540 and 570 nm, respectively). Fluorescent LDL-uptake was finally assessed following optimized protocol.

As for “LTFPGSAED [Peptide P7, lupin peptide used in mixture with P5 in the transport experiments]”, the “Transport rate across Caco-2 monolayer” value in data set [1] (in mixture) is 1.98 ± 0.21 ng/(mL × min); in data set [1] (tested alone), 4.2 ± 0.6 ng/(mL × min).

For “PCSK9: proprotein convertase subtilisin/kexin type-9 protein added to HepG2 cells at 4.0 μg/mL”, in data set [2], the “Decrease of LDLR protein levels on HepG2 cell surface versus the control cells” value was 24.7 ± 1.9%. For the same substance, the “Reduction of ability of HepG2 cells to uptake fluorescent LDL versus untreated cells” value in the data set with HepG2 cells was 43.5 ± 9.7%.
